We go through one molecule from patent US10363314B2, “Sprayable topical carrier and composition comprising phosphatidylcholine” (LIPIDOR AB, priority 2013, dated 2019).

This data set concerns human skin. In words: Erythema occurrence upon treating skin with carriers under occlusion for 12 days, first study. The class given is in vivo. To be noted: 33 healthy volunteers, occlusive conditions, applied 5 days per week, scored after 12 days, index 0-4. How it is done: The effect of prior art pharmaceutical compositions and of carriers and compositions of the invention on human skin was observed by visual inspection or by determining erythema index by using DermaLab Combo and DSM II Colormeter (Cortex Technology, Denmark).
Erythema occurrence was assessed in two human studies. In the first study the skin irritation potential of different lipid carriers was evaluated. Thirty-three healthy volunteers received the test formulations and a positive and negative control under occlusive conditions. The test articles were applied 5 days per week and the irritation grade was scored after 12 days according to a four-level assessment index (0=No reaction; 1=Slight diffuse, partial erythema; 2=Clear, sharply demarcated erythema; 3=Severe erythema with induration; 4=Severe erythema with induration and/or epidermal defect).

For `CCCCCCCCCCCCOS(=O)(=O)[O-].[Na+]` [Pos. control, Sodium dodecylsulfate], the “Mean erythema assessment index” value worked out at 3.0.
